This is an account of results in patent publication US9187458B2, “Cyanoquinoline derivatives” (Tianjin Hemay Bio-Tech Co., LTD., priority 2010, dated 2015).

What all share (assay type): cell-based
Experiment [1] deals with SW620 cells. As to the kind of experiment: SW620 Cell Growth Inhibition Test (SRB Assay). To be noted: Homo sapiens, SW-620, 91 h incubation. As for the experimental part: SW620 Cell Growth Inhibition Test (SRB Assay)
Cell strains: SW620 (human colorectal cancer cell strains);
SRB: available from Sigmaaldrich, goods number: S9012, lot number: 047K3751. […] was reserved at the room temperature. 0.4% (w/v) of working solution was formulated with 1% of glacial acetic acid. The solution was reserved at 4° C.; anti-tumor compounds; DMSO.
Culture medium: 90% L15+10% FBS;
1. A plate (10 cm) of cells in logarithmic growth phase normally cultured was collected. The culture solution was sucked out. The plate was washed wtih 5 mL of PBS 1-2 times;
2. PBS was sucked out. […] of 0.25% pancreatin was added to infiltrate the cells for 30 s;
3. The pancreatin was sucked out. The culture plate was placed in an incubator. Digestion was carried out for about 1.5-2 min at 37° C.;
4. 4 mL of complete culture solution was added to the culture plate to stop the digestion. The cells were carefully scoured with micropipette (1 ml) to give a uniform single cell suspension;
5. Cell suspension was counted. The suspension was diluted to 1.5×10^5/ml. The resulting suspension was developed uniformly on a plate by 15000 cells/100 μl per well. The culture plate was incubated overnight under 5% CO2 at 37° C. In day 2, 100 μl of culture solution comprising a compound was added in each well, and further incubated for 91 h under 5% CO2 at 37° C.;
6. The culture solution was sucked out. 100 uL of TCA fixed cells which were diluted to 10% were added to each well. The plate was kept in a refrigerator for 1 h at 4° C.
7. TCA stationary liquid was sucked out. Each well was washed with 150 μL of ddH2O five times;
8. After the stationary liquid was cleansed, the plate was dried in the air at the room temperature;
9. 60 μL of SRB staining solution was added in each well. The well was stained for 15 min at the room temperature;
10. The SRB staining solution was sucked out. Each well was washed with 150 μL of 1% glacial acetic acid five times;
11. After the SRB staining solution was cleansed, the plate was dried in the air at the room temperature;
12. 100 μL of 10 mM Tris was added in each well, the plate was vibrated to dissolve out SRB;
13. OD values were determined at 570 nM.
To: OD values of the starting content of cells when the cells were developed on a plate;
PC: OD values of cells after normal growth in control wells without a compound;
Ti: OD values of cells after growth in test wells with a compound;
NC: Background OD values of blank wells without a compound and cells
Therefore: Ratio of cells in test wells to normal wells (% of control cell growth)=(Ti−To)/(PC−To)×100%
Ratio GI50 was concentration of a compound at the point of 50%.
Therefore: Ratio of killed cells to inoculated cells (% of killed cell)=(Ti−To)/(To−NC)×100%
LC50 was concentration point of a compound when half of the starting inoculated concentration was reached.
Concentration of a compound at this point is defined as TGI (total growth inhibition).

Experiment [2] deals with CCRF-CEM/T cells. As to the kind of experiment: CCRF-CEM/T Cell Growth Inhibition Test (MTT Assay). To be noted: Homo sapiens, CCRF-CEM/T cells (resistant to paclitaxel), 72 h incubation. Here is the method:
CCRF-CEM/T Cell Growth Inhibition Test (MTT Assay)
Cell strains: CCRF-CEM/T (human acute lymphocytic cell leukemia cells);
triple lysate solution: 10% SDS, 5% isobutanol, 0.012M HCl.
1. Cells were cultured to exponential phase. The cells were suspension cells;
2. The cells were collected by centrifuge. The resulting cells were resuspended in a complete culture medium to a desired concentration. The cells suspension was implanted into a 96-well cell culture plate by 20000 cells per well. A compound was added in the wellsuch that the final volume of the system was 120 μl. The system was further incubated for 72 h under 5% CO2 at 37° C.
7. 30 μl of serum-free culture solution containing 2.5 mg/ml MTT was added in each well, and incubated for 3 h;
8. 150 μl of triple lysate solution was added in each well and placed to dissolve at the room temperature;
9. OD values were determined at 570 nM.
1. Calculation of Relative Inhibition Ratio The inhibition ratio of a compound on cell growth=(PC−n)/(PC−NC)×100%
IC50: Concentration of a compound where inhibition ratio was 50%. IC50 values were fitted with Origin7.5.

Experiment [3] concerns Fadu cells. Briefly: Fadu Cell Growth Inhibition Test (MTT Assay). To be noted: Homo sapiens, 72 h incubation. An outline of the steps:
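Fadu head and neck cancer cells in EMEM + 10% FBS, 6000 cells/well, dosed next day and incubated 72 h at 37 °C, 5% CO2. MTT 0.5 mg/ml for 3 h, DMSO solubilization, OD at 490 nm; inhibition ratio from positive and negative controls, IC50 from fitted curve.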

In the case of `CN(C)C/C=C/C(=O)Nc1cc2c(Nc3ccc(F)c(Cl)c3)c(C#N)cnc2cc1OC1CCOC1` (stereo not drawn) [Example 4, (E)-N-(4-(3-CHLORO-4-FLUOROPHENYLAMINO)-3-CYANO-7-(TETRAHYDROFURAN-3-YL-OXY)QUINOLIN-6-YL)-4-(DIMETHYLAMINO)-BUT-2-ENAMIDE], in experiment [1], growth was halved (GI50) at 3.5 µM. Besides, the IC50 in experiment [2] worked out at 5.8 µM; in experiment [3], 0.331 µM.
For the molecule `C#Cc1cccc(Nc2c(C#N)cnc3cc(O[C@H]4CCOC4)c(NC(=O)/C=C/CN(C)C)cc23)c1` [Example 140, (S,E)-N-(3-CYANO-4-(3-ETHYNYLPHENYLAMINO)-7-(TETRAHYDROFURAN-3-YL-OXY)QUINOLIN-6-YL)-4-(DIMETHYLAMINO)-BUT-2-ENAMIDE], in experiment [1], the GI50 was 2.3 µM. The same molecule returned an IC50 in experiment [2] of 7.9 µM.
The like results for `C#Cc1cccc(Nc2c(C#N)cnc3cc(OC4CCOC4)c(NC(=O)/C=C/CN(C)C)cc23)c1` (stereo not drawn) [Example 5, (E)-N-(3-CYANO-4-(3-ETHYNYLPHENYLAMINO)-7-(TETRAHYDROFURAN-3-YL-OXY)QUINOLIN-6-YL)-4-(DIMETHYLAMINO)-BUT-2-ENAMIDE] were, in that order, 1.68 µM and 9 µM.
In experiment [1], `CN(C)C/C=C/C(=O)Nc1cc2c(Nc3ccc(OCc4ccccn4)c(Cl)c3)c(C#N)cnc2cc1O[C@H]1CCOC1` [Example 138, (S,E)-N-(4-(3-CHLORO-4-(PYRIDIN-2-YL-METHOXY)PHENYLAMINO)-3-CYANO-7-(TETRAHYDROFURAN-3-YL-OXY)QUINOLIN-6-YL)-4-(DIMETHYLAMINO)-BUT-2-ENAMIDE] had a GI50 of 1.78 µM. Moreover, the values for the IC50 in experiment [2] and in experiment [3] were 5.6 µM and 0.101 µM, respectively.
Consider `CCN(CC)C/C=C/C(=O)Nc1cc2c(Nc3ccc(OCc4ccccn4)c(Cl)c3)c(C#N)cnc2cc1O[C@H]1CCOC1` [Example 150, (S,E)-N-(4-(3-CHLORO-4-(PYRIDIN-2-YL-METHOXY)PHENYLAMINO)-3-CYANO-7-(TETRAHYDROFURAN-3-YL-OXY)QUINOLIN-6-YL)-4-(DIETHYLAMINO)-BUT-2-ENAMIDE], for which the IC50 worked out at 3.76 µM in experiment [2] and 0.207 µM in experiment [3].
`C#Cc1cccc(Nc2c(C#N)cnc3cc(O[C@@H]4CCOC4)c(NC(=O)/C=C/CN(C)C)cc23)c1` [Example 141, (R,E)-N-(3-CYANO-4-(3-ETHYNYLPHENYLAMINO)-7-(TETRAHYDROFURAN-3-YL-OXY)QUINOLIN-6-YL)-4-(DIMETHYLAMINO)-BUT-2-ENAMIDE] yielded a GI50 in experiment [1] of 1.4 µM. Also, the IC50 in experiment [2] is 9.1 µM.
Molecule `CN(C)C/C=C/C(=O)Nc1cc2c(Nc3ccc(F)c(Cl)c3)c(C#N)cnc2cc1O[C@H]1CCOC1` [Example 142, (S,E)-N-(4-(3-CHLORO-4-FLUOROPHENYLAMINO)-3-CYANO-7-(TETRAHYDROFURAN-3-YL-OXY)QUINOLIN-6-YL)-4-(DIMETHYLAMINO)-BUT-2-ENAMIDE] gave a GI50 in experiment [1] of 2.3 µM. In addition, the values for the IC50 in experiment [2] and in experiment [3] were 6.6 µM and 0.115 µM, respectively.
In turn, `CN(C)C/C=C/C(=O)Nc1cc2c(Nc3ccc(OCc4cccc(F)c4)c(Cl)c3)c(C#N)cnc2cc1OC1CCOC1` (stereo not drawn) [Example 9, (E)-N-(4-(4-(3-FLUOROBENZYLOXY)-3-CHLOROPHENYLAMINO)-3-CYANO-7-(TETRAHYDROFURAN-3-YL-OXY)QUINOLIN-6-YL)-4-(DIMETHYLAMINO)-BUT-2-ENAMIDE] showed a GI50 in experiment [1] of 2.1 µM. For the same molecule, the half-inhibitory concentration (IC50) in experiment [3] was 0.219 µM.
Turning to `CN(C)C/C=C/C(=O)Nc1cc2c(Nc3ccc(OCc4ccccn4)c(Cl)c3)c(C#N)cnc2cc1O[C@@H]1CCOC1` [Example 139, (R,E)-N-(4-(3-CHLORO-4-(PYRIDIN-2-YL-METHOXY)PHENYLAMINO)-3-CYANO-7-(TETRAHYDROFURAN-3-YL-OXY)QUINOLIN-6-YL)-4-(DIMETHYLAMINO)-BUT-2-ENAMIDE], it took 1.9 µM to inhibit growth in experiment [1] by half (GI50). Besides, the IC50 came out at 1.4 µM in experiment [2] and 0.201 µM in experiment [3].
Take `CN(C)C/C=C/C(=O)Nc1cc2c(Nc3ccc(OCc4cccc(C#N)c4)c(Cl)c3)c(C#N)cnc2cc1OC1CCOC1` (stereo not drawn) [Example 15, (E)-N-(4-(4-(3-CYANOBENZYLOXY)-3-CHLOROPHENYLAMINO)-3-CYANO-7-(TETRAHYDROFURAN-3-YL-OXY)QUINOLIN-6-YL)-4-(DIMETHYLAMINO)-BUT-2-ENAMIDE]: it took 0.26 µM to reach half-maximal inhibition in experiment [3] (IC50).
Still for that read-out and setting: for `C#Cc1cccc(Nc2c(C#N)cnc3cc(O[C@H]4CCOC4)c(NC(=O)/C=C/CNC(C)(C)C)cc23)c1` [Example 146, (S,E)-N-(3-CYANO-4-(3-ETHYNYLPHENYLAMINO)-7-(TETRAHYDROFURAN-3-YL-OXY)QUINOLIN-6-YL)-4-(TERT-BUTYLAIMINO)-BUT-2-ENAMIDE] the value was 0.2 µM.
For `CN(C)C/C=C/C(=O)Nc1cc2c(Nc3ccc(OCc4ccccn4)c(Cl)c3)c(C#N)cnc2cc1OC1CCOC1` (stereo not drawn) [Example 21, (E)-N-(4-(3-CHLORO-4-(PYRIDIN-2-YL-METHOXY)PHENYLAMINO)-3-CYANO-7-(TETRAHYDROFURAN-3-YL-OXY)QUINOLIN-6-YL)-4-(DIMETHYLAMINO)-BUT-2-ENAMIDE], the GI50 in experiment [1] turned out to be 1.78 µM.
Regarding `N#Cc1cnc2cc(O[C@H]3CCOC3)c(NC(=O)/C=C/CN3CCCCC3)cc2c1Nc1ccc(OCc2ccccn2)c(Cl)c1` [Example 151, (S,E)-N-(4-(3-CHLORO-4-(PYRIDIN-2-YL-METHOXY)PHENYLAMINO)-3-CYANO-7-(TETRAHYDROFURAN-3-YL-OXY)QUINOLIN-6-YL)-4-(PIPERIDIN-1-YL)-BUT-2-ENAMIDE], the IC50 in experiment [2] stood at 3.6 µM; in experiment [3], 0.244 µM.
